Series [1] concerns Primary GFP+ cells from the Itk-Syk transgenic mouse model. Put plainly: Apoptosis and synergy in primary GFP+ cells from Itk-Syk transgenic mouse. The format is cell-based. The conditions noted are these: 48 hours.
In the next series the test system is HD-MAR2. Briefly: cells. The format is cell-based. The note with it: 48 h, read-out: IC50 (concentration that inhibits viability by 50%).
In a further series the test system is Jurkat. Put plainly: cells. The format is cell-based. The conditions noted are these: Homo sapiens, 48 h, read-out: IC50 (concentration that inhibits viability by 50%).
The next series concerns SUP-T1 cells. Briefly: Flow cytometry apoptosis (Annexin V-FITC/PI), SUP-T1. Format: cell-based. The note with it: 48 hours.
The test system of another series is HH. Briefly: cells. The format is cell-based.
The conditions of series [2]: in vivo; cited from earlier work.
The next series deals with Sup-T1. Put plainly: cells. The format is cell-based. The conditions noted are these: Homo sapiens, SUP-T1, 48 h, read-out: IC50 (concentration that inhibits viability by 50%).
Series [3] concerns protein, primarily albumin. The conditions noted are these: cited from earlier work.
A further series concerns Karpas 299. Put plainly: cells. Format: cell-based. The conditions noted are these: Homo sapiens, KARPAS-299, 48 h, read-out: IC50 (concentration that inhibits viability by 50%).
The conditions of series [4]: after intravenous infusion; cited from earlier work.
The conditions of series [5]: water; cited from earlier work.
Another series has as its system Karpas 299 cell line. Briefly: Flow cytometry apoptosis (Annexin V-FITC/PI), Karpas 299. Format: cell-based.

Consider `Cn1c(CCCC(=O)O)nc2cc(N(CCCl)CCCl)ccc21` [bendamustine], for which, in series [1] (bendamustine alone), the “apoptosis induced, % of the cells” value was found to be 72%. Also, the IC50 in the series on HD-MAR2 was 9.33 µM; with Jurkat, 17.8 µM; with Sup-T1, 8.88 µM; in the series on Karpas 299 it was 32 µM. Also, in the series with SUP-T1 cells (SUP-T1, bendamustine alone), the “apoptosis induced, % cells” value is 50%. Moreover, the “growth inhibition (sensitivity of cell line)” value in the series on HH (concentrations as high as 30 μM, 48 hours of exposure) is reported as “resistant”. In addition, in series [2], the “incidence of hair loss (alopecia)” value is given as “low incidence”. Further, in series [3], the “drug bound to protein” value is “More than 95%”. Further, the “half-life (first phase of biphasic elimination)” value in [4] is 6 to 10 min. The terminal half-life entry in [4] is reported as “approximately 30 minutes”. Besides, in series [5], the solubility result is “water soluble”. Also, in the series on Karpas 299 cell line (Karpas 299, bendamustine at 10 μM (IC50-60)), the apoptotic cells is 35%.

For the molecule `C/C=C1\NC(=O)[C@H]2CSSCC/C=C/[C@H](CC(=O)N[C@H](C(C)C)C(=O)N2)OC(=O)[C@H](C(C)C)NC1=O` [romidepsin, (1S,4S,7Z,10S,16E,21R)-7-ethyl idene-4,21-bis(1-methylethyl)-2-oxa-12,13-dithia-5,8,20,23-tetrazabicyclo[8.7.6]tricos-16-ene-3,6,9,19,22-pentone], in series [1] (romidepsin alone), the “apoptosis induced, % of the cells” value is reported as 60%. The IC50 was 0.00033 µM with HD-MAR2; 0.00046 µM in the series on Jurkat; 1.68 nM in the series with HH (Homo sapiens, 48 h, read-out: IC50 (concentration that inhibits viability by 50%)); 0.00094 µM with Sup-T1; 0.00056 µM with Karpas 299. Also, in the series on SUP-T1 cells (SUP-T1, romidepsin alone), the “apoptosis induced, % cells” value is 31%. For the same molecule, the “apoptosis induced, % of the cell population” value in the series on Karpas 299 cell line (Karpas 299, romidepsin alone at 1 nM) is “up to 40%”.

Source of the values: US20150231198A1 (priority 2014, published 2015).
